Entries after “also recorded” stand apart in the source; their conditions may differ.
Key:
A3R = biological target: T1, A3R (Rattus norvegicus, UniProt P28647); assay: Small-animal PET in rats: baseline and A3R blocking scans; assay type: in vivo; settings: baseline PET, 60 min
T1 construct: Adult male Sprague-Dawley rats; from tissue; host or cells: living Sprague-Dawley rats, brain volume of interest in PET
T1 sequence (P28647 1-320): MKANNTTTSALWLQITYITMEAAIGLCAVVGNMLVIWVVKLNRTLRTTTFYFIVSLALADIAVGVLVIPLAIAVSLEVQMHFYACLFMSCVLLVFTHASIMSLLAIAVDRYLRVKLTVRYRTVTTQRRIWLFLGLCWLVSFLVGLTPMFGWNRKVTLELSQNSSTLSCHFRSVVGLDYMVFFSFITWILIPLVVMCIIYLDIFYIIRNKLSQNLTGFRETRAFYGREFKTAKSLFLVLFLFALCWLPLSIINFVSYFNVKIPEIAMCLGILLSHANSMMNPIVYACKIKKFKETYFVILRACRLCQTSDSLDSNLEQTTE
Description: A microPET Focus220 scanner (Siemens, Medical Solutions) was used for the experiments. It has 168 detector modules providing a 7.6-cm axial and 22-cm transaxial field of view. The resolution of the reconstructed images (filtered back projection) was 1.3 mm (full-width at half-maximum) in the central field of view and remained under 2 mm within the central 5 cm diameter field of view. For PET imaging two groups of animals (rats and xenografted mice) were investigated. Rats were divided into four groups. The first group received vehicle (dimethyl sulphoxide, DMSO) intravenously via a lateral tail vein 30 min prior to radiotracer administration (three animals, 14.3 – 70.1 MBq, 0.2604 ± 0.06 μg). The second group received MRS1523 – a selective A3R antagonist – at a dose of 2 mg/kg body weight (dissolved in DMSO, 4 mg/mL) intravenously via a tail vein 30 min prior to radiotracer administration (three animals, 18.8 – 59.1 MBq, 0.3443 ± 0.05 μg). The third group received unlabelled title compound FE@SUPPY (dissolved in DMSO, 4 mg/mL) at a dose of 2 mg/kg 30 min before tracer administration (three animals, 9.7 – 16.1 MBq, 0.3926 ± 0.04 μg). In the final study group, the effect of P-glycoprotein inhibition was assessed by intravenous administration of 15 mg/kg TQD (freshly dissolved on each experimental day in 2.5 % aqueous dextrose solution and injected intravenously via a tail vein at a volume of 3 mL/kg over 1 min) 60 min prior to tracer administration (three animals, 13.9 – 26.8 MBq, 0.7451 ± 0.11 μg).
Anaesthetized animals were positioned in the imaging chamber of the microPET scanner, which was kept at 38 °C throughout the experiment. A stereotactic holder attached to the bed, consisting of ear plugs and a tooth bar, was used to fix the animal's head to ensure a reproducible position during the PET studies. [^18F]FE@SUPPY (27.91 ± 13.82 MBq) dissolved in 0.48 ± 0.22 mL phosphate-buffered saline (pH 7.4) was administered as a bolus via a tail vein. Dynamic PET imaging was performed over 60 min in all animals. At the end of the PET scan the animals were killed, a terminal blood sample was collected and whole brains were removed for testing of metabolite stability.
For all PET scans (rats and xenografted mice), list mode data were acquired with an energy window of 350 – 750 keV (rats) or 250 – 750 keV (mice) and a 6-ns timing window. Before each PET scan, a transmission scan using a ^57Co point source was recorded over 10 min. The PET data from the 60-min dynamic scans were sorted into three-dimensional sinograms according to the following frame sequence: 6 × 20 s, 5 × 60 s, 4 × 120 s, 3 × 300 s and 3 × 600 s. For the 90-min scans (in the xenografted mice) the following frame sequence was used: 8 × 5 s, 2 × 10 s, 2 × 30 s, 3 × 60 s, 2 × 150 s, 2 × 300 s, 4 × 600 s and 2 × 900 s. PET images were reconstructed by Fourier rebinning followed by filtered back projection with a ramp filter. The resulting voxel size was 0.6 × 0.6 × 0.8 mm for rats or 0.4 × 0.4 × 0.8 mm for mice. The standard data correction protocol (normalization, attenuation and decay correction) was applied to the data. A calibration factor for converting units of microPET images into absolute radioactivity concentration units was first generated by imaging a phantom filled with a known concentration of [^18F]FDG.
Rat brains were manually outlined on multiple planes of the PET summation images using the image analysis software PMOD 3.1 (Pmod Ltd, Zürich, Switzerland) or Amide. Volumes of interest in the brain or solid tissue mass (xenografts) were transferred to the PET images of the individual time frames and time–activity curves (TACs) expressed in units of kilobecquerels per millilitre were calculated. To facilitate comparison of TACs of different animals, radioactivity concentrations were normalized to dose and weight and expressed as standardized uptake value (SUV, %ID/cm^3 or %ID/g). […]

P-gp = assay: Small-animal PET in rats: efflux (P-gp) inhibition; assay type: in vivo
Description: A microPET Focus220 scanner (Siemens, Medical Solutions) was used for the experiments. […] The resolution of the reconstructed images (filtered back projection) was 1.3 mm (full-width at half-maximum) in the central field of view and remained under 2 mm within the central 5 cm diameter field of view [15]. For PET imaging two groups of animals (rats and xenografted mice) were investigated. Rats were divided into four groups.
Anaesthetized animals were positioned in the imaging chamber of the microPET scanner, which was kept at 38 °C throughout the experiment. […]
For all PET scans (rats and xenografted mice), list mode data were acquired with an energy window of 350 – 750 keV (rats) or 250 – 750 keV (mice) and a 6-ns timing window. Before each PET scan, a transmission scan using a ^57Co point source was recorded over 10 min. […] A calibration factor for converting units of microPET images into absolute radioactivity concentration units was first generated by imaging a phantom filled with a known concentration of [^18F]FDG.
Rat brains were manually outlined on multiple planes of the PET summation images using the image analysis software PMOD 3.1 (Pmod Ltd, Zürich, Switzerland) or Amide [18]. […] To facilitate comparison of TACs of different animals, radioactivity concentrations were normalized to dose and weight and expressed as standardized uptake value (SUV, %ID/cm^3 or %ID/g). […]

[1] = In vitro plasma stability, human plasma; assay type: in vitro ADME; settings: 0-120 min
Description: (§1) Experiments were conducted following a standard protocol. Briefly, [^18F]FE@SUPPY was added to lithium-heparinized human or rat plasma and after predetermined times (0, 60 and 120 min), the incubation mixture was eluted through a preconditioned SPE cartridge. The washed and newly eluted eluate solutions were injected into the radio-HPLC system (HPLC system as described in the section Ex vivo stability). The stationary phase was an analytical HPLC column LiChrospher LICHROCART® RP-18e (5 μm), 125 × 4 mm precolumn, and the mobile phase consisted of sodium citrate tribasic dehydrate (buffered at 0.034 M, pH 2.5)/acetonitrile 32:68 at a flow rate of 2 mL/min. Samples were incubated with a Thermomixer Compact from Eppendorf (Vienna, Austria) and centrifuged with a Universal 30 RF centrifuge from Hettich (Tuttlingen, Germany).

[2] = In vitro plasma stability, rat plasma; assay type: in vitro ADME
Description: as §1

[3] = parameters: method as in doi:10.2174/1876388X00901010015; settings: cited from earlier work
[4] = parameters: method as in PMID 20447552; settings: rats, 30 min after injection; cited from earlier work

CCSC(=O)c1c(CC)nc(-c2ccccc2)c(C(=O)OCC[18F])c1CC [[^18F]FE@SUPPY, 5-(2-[^18F]fluoroethyl)-2,4-diethyl-3-(ethylsulfanylcarbonyl)-6-phenylpyridine-5-carboxylate]
tracer uptake in fat-rich regions (harderian and lacrimal glands) (A3R): high uptake
tracer uptake in the brain (A3R): low uptake
peak brain activity (P-gp; TQD-treated group (15 mg/kg, 60 min before tracer)): 1.53 ± 0.01 SUV
peak brain activity (P-gp; untreated group): 1.56 ± 0.22 SUV
stability in human plasma [1]: no degradation; also recorded: no metabolites were observed; also recorded: Stable over 120 min in human plasma
radioactivity from metabolites in rat plasma ([2]; 60 min): 18.7 ± 3%
radioactivity from metabolites in rat plasma ([2]; 120 min): 35.0 ± 4%
radioactive metabolites in rat plasma over the observation period ([2]; observation period of 120 min): 19 – 35%
logP assessment [3]: high lipophilicity
HPLClogD^7.4 ([3]; pH 7.4): 4.04
metabolites in brain [4]: no metabolites
parent compound left in plasma [4]: 30%

Source: PMC4349960, “[^18F]FE@SUPPY: a suitable PET tracer for the adenosine A3 receptor? An in vivo study in rodents” (European Journal of Nuclear Medicine and Molecular Imaging, 2015)
